Data published in patent US20250179016A1, “AMORPHOUS MELANOCORTIN-4 RECEPTOR AGONIST” (LG CHEM, LTD., priority 2020, published 2025).

Key:
[1] = Stability assessment: storage of the solid sample, then HPLC analysis; assay type: physicochemical; conditions: in % (unit assumed); for Stability result (HPLC analysis), Open ACC: open state, accelerated condition (40° C., 75% RH); for Stability result (HPLC analysis), Closed STR: sealed state, harsh condition, oven at 80° C.
Description: About 10-30 mg of the sample was stored for 4 weeks in an open state under the accelerated condition (40° C., 75% RH) or in a sealed state under the harsh condition in an oven at 80° C.

[2] = as above; assay type: physicochemical; conditions: in % (unit assumed)

For CC(C)C(=O)N([C@H]1C[C@@H](C(=O)N2CCOCC2)N(C(=O)[C@@H]2CN(C(C)(C)C)C[C@H]2c2ccc(Cl)cc2)C1)[C@H]1CC[C@@H](C)CC1.Cl [Example 1, N-((3S,5S)-1-((3S,4R)-1-(tert-butyl)-4-(4-chlorophenyl)pyrrolidine-3-carbonyl)-5-(morpholine-4-carbonyl)pyrrolidin-3-yl)-N-((1s,4R)-4-methylcyclohexyl)isobutyramide hydrochloride], the “Stability result (HPLC analysis), Open ACC” value (“Stability result … Open ACC” for short) ([1]; Day 3) was 97.95, the “Stability result (HPLC analysis), Closed STR” value (from here on “Stability result … Closed STR”) ([1]; Day 3) was 97.94 and the “Stability result (HPLC analysis)” value ([1]; Initial) was 97.94. The “Stability result … Open ACC” value ([1]; Week 1) was 98.04, the “Stability result … Closed STR” value ([1]; Week 1) was 97.83 and the “Stability result … Open ACC” value ([1]; Week 2) was 98.04. For the same compound, the “Stability result … Closed STR” value ([1]; Week 2) was 97.88, the “Stability result … Open ACC” value ([1]; Week 4) was 97.68 and the “Stability result … Closed STR” value ([1]; Week 4) was 97.10. For the same compound, the “Stability result (HPLC analysis), Closed RT” value ([2]; Week 2, stored at room temperature) was 97.86 and the “Stability result (HPLC analysis), Closed RT” value ([2]; Week 4, stored at room temperature) was 97.27.
